From US20090136468A1, “PERI-OPERATIVE COMPOSITION COMPRISING LACTOBACILLUS RHAMNOSUS” (N.V. NUTRICIA, priority 2004, published 2009)

Legend:
[1] = test system: L. rhamnosus GG (ATCC 53103); experiment: MIC by serial dilution of antibiotics in MRS broth; format: cell-based, Lactobacillus rhamnosus; details: 24 hours at 37° C.
Description: (§1) The Minimal inhibitory concentration (MIC) was determined by serial dilution of the tested antibiotics in MRS broth (Oxoid) and inoculate the broth with the probiotic strain to be tested.
(§2) Strains of Lactobacilli were cultured for 24 hours in MRS-broth at 37° C. and under aerobic conditions. A dilution series of the 24 hours-culture in MRS-broth was prepared (dilution factor 10, from 10^−1 to 1^−10). The dilution series were cultured overnight (i.e. 16 h) at 37° C. under aerobic conditions. The highest dilution in which still growth was observed was selected to inoculate a 96-wells plate. The culture was centrifuge for 10 min at 3800 rpm and 4° C. and resuspended in the same volume of PBS (4° C.). The Lactobacilli were counted under a microscope and the solution was diluted in cold PBS to obtain a concentration of 1*10^8 cells/ml.
(§3) Wells of a 96-wells plate were filled with MRS broth and with antibiotics in varying dilution to a total volume of 95 μl. As a control, no antibiotics were added. The following final dilutions of antibiotics were tested:
(§4) bacitracin, colistin, nystatin, polymixin B, vancomycin: 1000, 500, 250, 125, 62.5 ug/ml erythromycin, kanamycin, neomycm: 100, 50, 25, 12.5, 6.25 ug/ml ampicillin, chloramphenicol, lincomycin, penicillin, streptomycin, tetracyclin: 10, 5, 2.5, 1.25, 0.625 ug/ml
(§5) The plates were incubated for 24 hours at 37° C. in a SpectaMAX plate reader (shaking every 10 minutes for 20 seconds) and the optical density was determined at 600 nm.

[2] = test system: L. rhamnosus LMG P-22799; experiment: MIC by serial dilution of antibiotics in MRS broth; format: cell-based, Lactobacillus rhamnosus; details: 24 hours at 37° C.
Description: as §1, §2, §3, §4, §5

[3] = test system: 131 strains of Lactobacillus rhamnosus; experiment: Broth micro dilution test, MIC distribution; format: cell-based; details: 131 L. rhamnosus strains, LSM broth, 37° C.
Description: (§6) The inocula of 131 strains of Lactobacillus rhamnosus species are prepared by suspending several freshly cultivated single colonies in a tube with 5 ml of saline up to an optical density of McFarland standard No. 0.5. The corresponding colonies are picked up from MRS (de Man, Rogosa, Sharpe) agar plates on which the strains grew for 48 h at 37° C. and at 5% CO2 atmosphere. Subsequently, this suspension is diluted 1:10 by transferring 4 ml of the McFarland No. 0.5 suspension into a suitable inoculum container with 36 ml of saline and subsequent careful mixing. The MIC microtiter test plates (95 wels with different concentrations of the test antibiotics and one wel for the growth control without any antibiotic) were prepared before. Nutrient medium: LSM (lactobacilli susceptibility test medium) broth consisting of 90% Iso-sensitest broth plus 10% MRS broth (pH 6.7). The inoculations of the pre-made MIC test plates are performed by a multipoint inoculator (final inoculum of these LAB in the microtiter plate: about 10^5 bacteria ml^−1). The plates are subsequently incubated in ambient air or in a 5% CO2 atmosphere at 37° C. for 24 (−48) h. Then the MICs are read as the lowest concentration in the increasing concentration row of the corresponding antibiotic in which no growth of the test organism was observed. The control attempt (without antibiotic) of the corresponding strain tested has to show sufficient growth.

[4] = test system: our preferred Lb. rhamnosus (LMG P-22799); experiment: Broth micro dilution test, MIC; format: cell-based, Lactobacillus rhamnosus
Description: as §6
(§7) In a large study comprising 131 different Lb. rhamosus strains the sensitivity for antibiotics was tested. In table 6 the number of strains falling within a certain dilution factor are shown. Clearly there are large differences in antibiotic sensitivity within the Lb. rhamnosus group. The more sensitive to these antibiotics, the better and together with the other parameters, such as the inhibition of adhesion of pathogens to intestinal epithelial cells is used to select the most appropriate Lb. rhamnosus. […]

[5] = test system: Lb. rhamnosus GG; experiment: Broth micro dilution test, MIC; format: cell-based, Lactobacillus rhamnosus; details: Lacticaseibacillus rhamnosus, unit from Table 6, read-out: MIC against Lb. rhamnosus GG
Description: as §6, §7

Compound | Antibiotic sensitivity (expressed as MIC) of L. rhamnosus GG (ATTC 53103) [1] [µg/mL] | Antibiotic sensitivity (expressed as MIC) of L. rhamnosus LMG P-22799 [2] [µg/mL] | Number of strains with a MIC of 2.0 μg/ml [3] | Number of strains with a MIC of 4.0 μg/ml [3] | Number of strains with a MIC of 0.5 μg/ml [3] | Number of strains with a MIC of 1.0 μg/ml [3] | further results
CCC[C@@H]1C[C@@H](C(=O)N[C@@H]([C@H]2O[C@H](SC)[C@H](O)[C@@H](O)[C@H]2O)[C@@H](C)O)N(C)C1 [Lincomycin, lincomycin] | 10 | 5 | – | – | – | – | –
[H]/N=C(/N)N[C@H]1[C@H](O)[C@@H](O)[C@H](O[C@@H]2O[C@@H](C)[C@](O)(C=O)[C@H]2O[C@@H]2O[C@@H](CO)[C@H](O)[C@@H](O)[C@@H]2NC)[C@@H](N/C(N)=N\[H])[C@@H]1O [STR] | – | – | 37 | 52 | – | – | Number of strains with a MIC of 8.0 μg/ml [3]: 21
CC1(C)S[C@@H]2[C@H](NC(=O)[C@H](N)c3ccccc3)C(=O)N2[C@H]1C(=O)O [Ampicillin, ampicillin] | >10 | 2.5 | 12 | 2 | 52 | 62 | AMP sensitivity ratio LGG/LMG P-22799 [4]: 2-4; MIC ([4]; Lacticaseibacillus rhamnosus, unit from Table 6, read-out: MIC against our preferred Lb. rhamnosus): ≤ 0.5 µg/mL; MIC [5]: ≥ 1 µg/mL; Number of strains with a MIC of 0.25 μg/ml [3]: 3
[H]/N=C(/N)N[C@H]1[C@H](O)[C@@H](O)[C@H](O[C@@H]2O[C@@H](C)[C@](O)(C=O)[C@H]2O[C@@H]2O[C@@H](CO)[C@H](O)[C@@H](O)[C@@H]2NC)[C@@H](N/C(N)=N\[H])[C@@H]1O [Streptomycin, streptomycin] | >10 | 5 | – | – | – | – | –
O=C(N[C@H](CO)[C@H](O)c1ccc([N+](=O)[O-])cc1)C(Cl)Cl [CMP] | – | – | 88 | 31 | 1 | 10 | Number of strains with a MIC of 8.0 μg/ml [3]: 1
penicillin | – | – | 7 | – | 28 | 11 | Number of strains with a MIC of 0.125 μg/ml [3]: 9; Number of strains with a MIC of 0.25 μg/ml [3]: 76
O=C(N[C@H](CO)[C@H](O)c1ccc([N+](=O)[O-])cc1)C(Cl)Cl [Chloramphenicol, chloramphenicol] | >10 | 5 | – | – | – | – | –
CN(C)[C@@H]1C(=O)C(C(N)=O)=C(O)[C@@]2(O)C(=O)C3=C(O)c4c(O)cccc4[C@@](C)(O)[C@H]3C[C@@H]12 [Tetracyclin, tetracyclin] | 10 | 2.5 | – | – | – | – | –
CC[C@H]1OC(=O)[C@H](C)[C@@H](O[C@H]2C[C@@](C)(OC)[C@@H](O)[C@H](C)O2)[C@H](C)[C@@H](O[C@@H]2O[C@H](C)C[C@H](N(C)C)[C@H]2O)[C@](C)(O)C[C@@H](C)C(=O)[C@H](C)[C@@H](O)[C@]1(C)O [Erythromycin, erythromycin] | >100 | 50 | – | – | – | – | –
